Measured values from patent US5543420A, “Quinoline-3-acetic acid derivative, process for production thereof and use thereof” (The Green Cross Corporation, priority 1993, dated 1996).

Assays:
aldose reductase = molecular target: T1, aldose reductase (Sus scrofa, UniProt P80276); assay: Aldose reductase inhibitory action; assay type: biochemical; settings: swine lens enzyme, diglyceraldehyde substrate 3 mM, 0.1 mM NADPH, pH 6.2, 25° C., 2 minutes; read-out: IC50 (concentration inhibiting the aldose reductase activity by 50%)
T1 construct: An aldose reductase enzyme standard product was prepared from swine lens; from tissue; host or cells: swine lens
Protocol: An aldose reductase enzyme standard product was prepared from swine lens according to the method of S. Hayman et al. [Journal of Biological Chemistry, 240, 877-882 (1965)]. That is, swine lenses freeze-stored at -80° C. were homogenized with distilled water and cetrifuged at 10,000 g for 15 minutes. The supernatant was prepared into a 40% ammonium sulfate solution and subjected to cetrifugation at 10,000 g for 10 minutes. The supernatant obtained was dialyzed overnight against a 0.05M sodium chloride solution to give a dialyzed solution, which was used as an enzyme standard product.
The activity of aldose reductase was determined by the above-mentioned method of S. Hayman et al. That is, the above-mentioned enzyme solution (25 μl) and a drug solution (25 μl) in 1% DMSO at various concentrations were added to a 40 mM phosphate buffer (200 μl, pH 6.2) containing final concentrations of 0.4M lithium sulfate, 0.1 mM NADPH (reduced type nicotinamide adenine dinucleotide phosphate) and 3 mM diglyceraldehyde as a substrate. The mixture was allowed to react at 25° C. for 2 minutes and the changes in absorbance at 340 nm was determined with COBAS FARA II (manufactured by Roche).
The changes in absorbance when 1% DMSO was added instead of the drug solution was taken as 100%, based on which 50% inhibition concentration (IC50) was calculated and shown in Table 1.
The test drug number indicates the example number to be mentioned later. Compound A is 3,4-dihydro-2,8-diisopropyl-3-thioxo-2H-1,4-benzoxazine-4-acetic acid disclosed in Japanese Patent Unexamined Publication 107970/1988.

[1] = system: sorbitol accumulation in tissues (erythrocytes, sciatic nerve, lens); assay: Inhibitory action on sorbitol accumulation in tissues of rats with experimental diabetes; assay type: in vivo, Sprague-Dawley rats; settings: streptozotocin rats, 3 hours after final administration, control taken as 100%
Protocol: Sprague-Dawley rats (male, 6 weeks old, 5-6 per group) were fasted for 18 hours and injected with streptozotocin (SIGMA, 60 mg/kg) via the tail vein under etherization to prepare rats with diabetes.
[…] During the administrations, the rats were raised under free access to feed and water and the sorbitol content in the tissues (erythrocytes, sciatic nerve, lens) was determined 3 hours after the final administration according to the enzyme method of H. Y. Bergmeyer et al. [Methods of Enzymatic Analysis, vol. 3, 1323-1330 (1974)] with the use of SDH (sorbitol dehydrogenase) and NAD (β-nicotinamide adenine dinucleotide). The results are expressed in percent (%) relative to the value of a control group administered with 0.5% carboxymethylcellulose solution (solvent) instead of the compound, which was taken as 100%.

Normal ICR mice = settings: mouse, in vivo
Protocol: The acute toxicity (safety) of the compound of the present invention was confirmed by the following method.
Normal ICR mice (male, 7 weeks old, 5 per group) were fasted for 18 hours and the compounds (300 mg/kg) of Example 11 and Example 20 were orally administered as 0.5% carboxymethylcellulose suspensions. To the control group, a 0.5% carboxymethylcellulose solution alone was orally administered and observation was continued for 14 days thereafter, during which period the mice were allowed to take feed and water freely.

[2] = 10 mg/kg oral at 4, 8 and 24 hours
[3] = 30 mg/kg oral at 4, 8 and 24 hours

IC50 (aldose reductase) [nM]	Structure (SMILES)	Sorbitol accumulation, erythrocytes [1, 2] [%]	Sorbitol accumulation, lens [1, 2] [%]	Sorbitol accumulation, sciatic nerve [1, 2] [%]	Sorbitol accumulation, erythrocytes [1, 3] [%]	Sorbitol accumulation, lens [1, 3] [%]	Sorbitol accumulation, sciatic nerve [1, 3] [%]	death of the mice (Normal ICR mice)
11	Cc1ccc2c(c1)CC(CC(=O)O)C(=O)N2Cc1nc2c(F)c(F)cc(F)c2s1 (stereo not shown) [Example 17, 1-(4,5,7-trifluorobenzothiazol-2-yl)methyl-6-methyl-2-oxo-1,2,3,4-tetrahydro-1H-quinolin-3-ylacetic acid]	31.2	46.9	0.5	–	–	–	–
–	CC(C)c1cccc2c1OC(C(C)C)C(=S)N2CC(=O)O (stereo not shown) [Compound A, 3,4-dihydro-2,8-diisopropyl-3-thioxo-2H-1,4-benzoxazine-4-acetic acid, reference compound]	–	–	–	53.7	87.3	54.9	–
12	O=C(O)CC1Cc2cc(F)ccc2N(Cc2nc3c(F)c(F)cc(F)c3s2)C1=O (stereo not shown) [Example 19, 6-fluoro-1-(4,5,7-trifluorobenzothiazol-2-yl)methyl-2-oxo-1,2,3,4-tetrahydro-1H-quinolin-3-ylacetic acid]	–	–	–	–	–	–	–
13	O=C(O)CC1Cc2ccccc2N(Cc2nc3c(F)c(F)ccc3s2)C1=O (stereo not shown) [Example 12, 1-(4,5-difluorobenzothiazol-2-yl)methyl-2-oxo-1,2,3,4-tetrahydro-1H-quinolin-3-ylacetic acid]	0.0	78.8	0.0	–	–	–	–

Structure (SMILES)	IC50 (aldose reductase) [nM]	Sorbitol accumulation, erythrocytes [1, 2] [%]	Sorbitol accumulation, lens [1, 2] [%]	Sorbitol accumulation, sciatic nerve [1, 2] [%]	Sorbitol accumulation, erythrocytes [1, 3] [%]	Sorbitol accumulation, lens [1, 3] [%]	Sorbitol accumulation, sciatic nerve [1, 3] [%]	death of the mice (Normal ICR mice)
O=C(O)CC1Cc2ccccc2N(Cc2nc3c(F)c(F)cc(F)c3s2)C1=O (stereo not shown) [Example 11, 1-(4,5,7-Trifluorobenzothiazol-2-Yl)Methyl-2-Oxo-1,2,3,4-Tetrahydro-1H-Quinolin-3-Ylacetic Acid]	9	15.6	50.7	0.0	–	–	–	no case of death
O=C(O)Cc1cc2ccccc2n(Cc2nc3c(F)c(F)cc(F)c3s2)c1=O [Example 20, 1-(4,5,7-trifluorobenzothiazol-2-yl)methyl-2-oxo-1,2-dihydro-1H-quinolin-3-ylacetic acid]	9.4	–	–	–	–	–	–	no case of death
